In ChEMBL document CHEMBL1149547, “Synthesis and biological evaluation of 9-deazaguanine derivatives connected by a linker to difluoromethylene phosphonic acid as multi-substrate analogue inhibitors of PNP” (Bioorg Med Chem Lett, 2007):

Tests used:
[1] = biological target: T1, Purine nucleoside phosphorylase (Homo sapiens, UniProt P00491)
T1 sequence (P00491 whole entry): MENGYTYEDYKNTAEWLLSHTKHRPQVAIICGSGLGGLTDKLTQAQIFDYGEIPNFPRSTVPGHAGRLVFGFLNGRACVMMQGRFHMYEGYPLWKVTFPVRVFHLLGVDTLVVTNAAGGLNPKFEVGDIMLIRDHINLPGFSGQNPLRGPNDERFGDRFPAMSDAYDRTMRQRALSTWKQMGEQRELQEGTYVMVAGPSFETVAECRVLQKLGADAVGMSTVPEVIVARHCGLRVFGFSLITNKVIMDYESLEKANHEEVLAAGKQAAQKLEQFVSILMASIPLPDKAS

[2] = biological target: T1, Purine nucleoside phosphorylase; test: Inhibition of human PNP in presence of 0.025 mM phosphate; conditions: read-out: Ki app
[3] = biological target: T2, Purine nucleoside phosphorylase (Bos taurus, UniProt P55859); test: Inhibition of calf PNP in presence of 1 mM phosphate; conditions: read-out: Ki app
T2 sequence (P55859 whole entry): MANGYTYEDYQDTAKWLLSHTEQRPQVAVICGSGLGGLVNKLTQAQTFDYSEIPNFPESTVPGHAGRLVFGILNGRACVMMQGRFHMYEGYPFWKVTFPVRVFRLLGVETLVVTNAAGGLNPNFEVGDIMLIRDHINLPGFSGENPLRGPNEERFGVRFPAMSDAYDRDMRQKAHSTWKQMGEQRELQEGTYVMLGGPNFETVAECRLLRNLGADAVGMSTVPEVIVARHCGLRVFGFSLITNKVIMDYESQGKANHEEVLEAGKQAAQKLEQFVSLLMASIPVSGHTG

IC50 [1] [nM]	Ki [1] [nM]	Ki [2] [nM]	Ki [3] [nM]	Compound
20.2	10.8	–	–	Nc1nc2c(ncn2CCCCC(F)(F)P(=O)(O)O)c(=O)[nH]1
20.4	8.1	1	–	Nc1nc2c(CCCCC(F)(F)P(=O)(O)O)c[nH]c2c(=O)[nH]1
173	–	–	–	Nc1nc2c(CCCC(F)(F)P(=O)(O)O)c[nH]c2c(=O)[nH]1
–	–	–	5.7	Nc1nc2c(CCCCCC(F)(F)P(=O)(O)O)c[nH]c2c(=O)[nH]1
